Results taken from patent publication US20070071783A1, “Pheromone attractants for the green mirid” (priority 2004, published 2007).
Marks after values point to notes of the source that are not given here.

What was measured:
[1] = system: mullein bug, Campylomma verbasci; conditions: blend released at rates of 91 and 183 μL per day; Smith et al. 1991, McBrien et al. 1994; cited from earlier work
Phytocoris relativus = conditions: Millar & Rice 1998; cited from earlier work
Phytocoris californicus = conditions: Millar & Rice 1998; Millar et al. 1997; cited from earlier work
[2] = system: green mirid, Creontiades dilutus; test: Field trapping bioassays: rubber septa lures in delta traps; format: in vivo; conditions: Experiment 1, soybeans, Cecil Plains; for Mean trap catch: 2 mg lure, mean ± s.e.
Description: A series of trials involving blends of the major component, hexyl hexanoate and the minor component (E)-2 hexenyl hexanoate in various ratios, as coded and presented in Table 1, as well as the single components, were tested in a series of field trapping experiments. After the initial optimisation, two other components (methyl salicylate and (Z)-3 hexenyl acetate), found in both the male and female extracts, were tested by adding them to the optimised blend.
Lures were prepared using rubber septa. Each lure was loaded with 2 mg of the blend with 10% butylated hydroxytoluene (BHT) added as an anti-oxidant. Control lures were loaded with BHT only.
Field experiments were conducted at Cecil Plains (Qld), Narrabri, Tamworth, Mullaley and Armidale (NSW). The experimental designs were Latin Squares with treatment (pheromone blend), trap position and day as the factors. Traps were placed in a grid at intervals of 25-50 m, cleared daily, and rotated to different positions in the Latin Square designs. Delta traps made out of plastic (Corflute®) were used.
This experiment aimed to test blends against individual components of the female sex pheromone. A 4×4 Latin square design with 4 rotation periods, 4 blend locations and 4 treatments was set up in soybeans in Cecil Plains. Traps were located 100 m from each other and cleared every day before rotation. […] They were only caught in traps baited with the blend GM1 at an average of 3.9 males per trap. All insects caught were sexed morphologically and found to be males. […]
A 3×3 Latin Square experiment, replicated at two different sites in mung beans and one site in a slashed lucerne field was set up in Mullaley, NSW. This experiment involved blends GM2, GM12, GM13. In the mung beans at Site 1, blend type was the only significant factor (P<0.01).
Blends GM2, GM12, GM17 and GM19 were tested in a 4×4 Latin Square experiment in lucerne at Piallamore, NSW. […] Analysis of variance on the logarithmically transformed data indicated no significant differences (P>0.05) between the blends.
This experiment aimed at testing the effect of septa loading on trap catches. It involved the use of blend GM2 with a 2, 20 and 40 mg loading respectively. The ratio of hexyl hexanoate to (E)-2-hexenyl acetate in all blends was 5:1. The design was a 3×3 Latin Square set up at two different sites in mung beans at Mullaley, NSW. […] Trap location and day were also non significant (Table 11).
This experiment aimed at testing the effects of methyl salicylate and (Z)-3 hexenyl acetate, identified in both male and female extracts on the optimised blend. The hypothesis was that they might increase the attractiveness of the blend. Blends GM2, GM14, GM15 and GM16 were used in a 4×4 Latin Square experiment conducted in lucerne at Piallamore, NSW. […]

[3] = system: green mirid, Creontiades dilutus; test: Attract-and-kill Experiment 1: sprayed-on formulation with added insecticide (methomyl); format: in vivo; conditions: pigeon peas, Mullaley, about 2.3% volatiles in carrier, methomyl 0.5%, 5 m of row
Description: The trial was set up in late flowering pigeon peas near Mullaley, NSW. The pheromone components were mixed with the formulation base from Magnet®, the commercial embodiment of the compositions described in WO 02/089577, the contents of which are incorporated herein by reference.
The plant volatile components of Magnet® were not included. The toxicant was methomyl at a concentration of 0.5% active ingredient.
There were four treatments: • 1) Control (no pheromone components added; carrier only) • 2) 12 ml hexyl hexanoate added to 500 ml of carrier • 3) 12 ml (E)-2 hexenyl hexanoate added to 500 ml of carrier • 4) 10 ml hexyl hexanoate plus 2 ml (E)-2 hexenyl hexanoate added to 500 ml carrier
Thus, in treatments 2-4 the final concentration of volatile pheromone components was about 2.3%. Treatment 4 had the two components in the optimum ratio as determined by trapping experiments.
Approximately 100 ml of each mixture was applied to 5 m of row of the pigeon peas, being shaken from a plastic bottle onto the tops of the plants. There were three replicates of each treatment, with buffer zones of 20 m surrounding them. Black plastic weed mat, 90 cm wide, was placed in the furrows on both sides,of the treated rows. It was secured around the bases of the plants using clothes pegs. This was done to facilitate finding dead GM. The treated areas were searched each morning over the next three days, and any dead GM found were sexed. Two pheromone traps, using blend GM2 as previously described, were also operated near the experimental site. At the conclusion of the experiment, five replicate samples using beat sheets were taken in the vicinity of the sprayed regions.

[4] = Day 1, standard error in brackets

Row | SMILES | Attractiveness of lures in field studies [1] | GM caught in baited traps, average [2] | Mean trap catch [2] | Mean number of female adults found (killed) [3, 4] | Mean number of male adults found (killed) [3, 4] | Mean number of nymphs found (killed) [3, 4] | Mean number of female adults found (killed) ([3]; Day 2) | Mean number of male adults found (killed) ([3]; Day 2) | Mean number of nymphs found (killed) ([3]; Day 2) | further results
1 | C/C=C/COC(=O)CCC [(E)-2-butenyl butyrate] | inactive | – | – | – | – | – | – | – | – | –
2 | CCCCC/C=C/COC(C)=O [(E)-2-octenyl acetate] | – | – | – | – | – | – | – | – | – | Inhibition of P. relativus males (Phytocoris relativus): did not inhibit
3 | CCCCC/C=C/COC(=O)CCC [(E)-2-octenyl butyrate] | – | – | – | – | – | – | – | – | – | Inhibition of attraction of P. californicus males to traps (Phytocoris californicus): inhibited attraction
4 | CCCCCCOC(=O)CCCCC [GM5, hexyl hexanoate] | – | did not attract any GM | 0.0 ± 0^b | 1.3 (0.3) | 1.3 (0.3) | 0.3 | 0 | 0 | 0 | –
5 | CCC/C=C/COC(=O)CCCCC [GM6, (E)-2-hexenyl hexanoate] | – | did not attract any GM | 0.0 ± 0^b | 1.0 (1.0) | 3.0 (1.1) | 0.3 (0.3) | 0 | 1.3 | 0 | –
6 | CCCCOC(=O)CCC [butyl butyrate] | inactive | – | – | – | – | – | – | – | – | –
